Measurements: the kinase profiling compilation of Christmann-Franck et al. (2016)
Several values for one entry are separate records, joined by “and”; a condition that tells them apart may be missing. Identical values can stand only once.

How the values were obtained:
Assay in all cases: radiometric filter-binding kinase assay, Kinase HotSpot
Settings in all cases: compound 0.5 µM; ATP 10 µM
ABL2 (human) = ABL2 (human) (UniProt P42684)
AURKC (human) = AURKC (human) (UniProt Q9UQB9)
BMX (human) = BMX (human) (UniProt P51813)
CAMK2B (human) = CAMK2B (human) (UniProt Q13554)
CAMK4 (human) = CAMK4 (human) (UniProt Q16566)
CDK2 CCNA2 (human) = CDK2 CCNA2 (human) (UniProt P24941+P20248)
CDK9 CCNT1 (human) = CDK9 CCNT1 (human) (UniProt P50750+O60563)
CSF1R (human) = CSF1R (human) (UniProt P07333)
CSNK2A2 (human) = CSNK2A2 (human) (UniProt P19784)
DAPK1 (human) = DAPK1 (human) (UniProt P53355)
DDR2 (human) = DDR2 (human) (UniProt Q16832)
EPHA7 (human) = EPHA7 (human) (UniProt Q15375)
EPHB3 (human) = EPHB3 (human) (UniProt P54753)
FGFR2 (human) = FGFR2 (human) (UniProt P21802)
FRK (human) = FRK (human) (UniProt P42685)
HIPK2 (human) = HIPK2 (human) (UniProt Q9H2X6)
INSRR (human) = INSRR (human) (UniProt P14616)
ITK (human) = ITK (human) (UniProt Q08881)
LYN (human) = LYN (human) (UniProt P07948)
MAP4K2 (human) = MAP4K2 (human) (UniProt Q12851)
MATK (human) = MATK (human) (UniProt P42679)
[1] = system: MKNK1 (human), Q9BUB5 [T385D; 165-205 del]
MKNK2 (human) = MKNK2 (human) (UniProt Q9HBH9)
MST4 (human) = MST4 (human) (UniProt Q9P289)
NEK11 (human) = NEK11 (human) (UniProt Q8NG66)
NTRK2 (human) = NTRK2 (human) (UniProt Q16620)
PAK1 (human) = PAK1 (human) (UniProt Q13153)
PASK (human) = PASK (human) (UniProt Q96RG2)
PBK (human) = PBK (human) (UniProt Q96KB5)
PHKG2 (human) = PHKG2 (human) (UniProt P15735)
PLK1 (human) = PLK1 (human) (UniProt P53350)
PRKACA (human) = PRKACA (human) (UniProt P17612)
PRKCA (human) = PRKCA (human) (UniProt P17252)
PRKCB2 (human) = PRKCB2 (human) (UniProt P05771)
PRKD2 (human) = PRKD2 (human) (UniProt Q9BZL6)
PRKG1 (human) = PRKG1 (human) (UniProt Q13976)
RIPK2 (human) = RIPK2 (human) (UniProt O43353)
RPS6KA1 KD1 KD2 (human) = RPS6KA1 KD1 KD2 (human) (UniProt Q15418)
SGK3 (human) = SGK3 (human) (UniProt Q96BR1)
SRMS (human) = SRMS (human) (UniProt Q9H3Y6)
SRPK2 (human) = SRPK2 (human) (UniProt P78362)
YES1 (human) = YES1 (human) (UniProt P07947)

Chain of PRKG1 (human) (Q13976 whole entry, looked up): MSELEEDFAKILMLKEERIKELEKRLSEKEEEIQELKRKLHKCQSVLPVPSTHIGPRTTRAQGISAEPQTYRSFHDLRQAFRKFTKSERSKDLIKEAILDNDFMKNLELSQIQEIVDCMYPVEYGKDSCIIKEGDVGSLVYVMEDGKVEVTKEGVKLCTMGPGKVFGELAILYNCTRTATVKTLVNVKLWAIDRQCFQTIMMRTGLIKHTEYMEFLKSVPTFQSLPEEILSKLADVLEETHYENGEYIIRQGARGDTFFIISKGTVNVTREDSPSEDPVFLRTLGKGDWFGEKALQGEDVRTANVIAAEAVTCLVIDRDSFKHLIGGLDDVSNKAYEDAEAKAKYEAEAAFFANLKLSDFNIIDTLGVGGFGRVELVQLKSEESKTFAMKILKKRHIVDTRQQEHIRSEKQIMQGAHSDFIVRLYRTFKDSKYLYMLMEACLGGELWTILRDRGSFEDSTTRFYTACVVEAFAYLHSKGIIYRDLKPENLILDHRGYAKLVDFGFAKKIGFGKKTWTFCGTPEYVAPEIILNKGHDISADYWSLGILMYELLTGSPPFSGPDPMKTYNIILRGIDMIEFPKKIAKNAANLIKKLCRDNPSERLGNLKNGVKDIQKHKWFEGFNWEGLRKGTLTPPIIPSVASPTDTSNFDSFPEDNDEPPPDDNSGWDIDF
Chain of LYN (human) (P07948 whole entry, looked up): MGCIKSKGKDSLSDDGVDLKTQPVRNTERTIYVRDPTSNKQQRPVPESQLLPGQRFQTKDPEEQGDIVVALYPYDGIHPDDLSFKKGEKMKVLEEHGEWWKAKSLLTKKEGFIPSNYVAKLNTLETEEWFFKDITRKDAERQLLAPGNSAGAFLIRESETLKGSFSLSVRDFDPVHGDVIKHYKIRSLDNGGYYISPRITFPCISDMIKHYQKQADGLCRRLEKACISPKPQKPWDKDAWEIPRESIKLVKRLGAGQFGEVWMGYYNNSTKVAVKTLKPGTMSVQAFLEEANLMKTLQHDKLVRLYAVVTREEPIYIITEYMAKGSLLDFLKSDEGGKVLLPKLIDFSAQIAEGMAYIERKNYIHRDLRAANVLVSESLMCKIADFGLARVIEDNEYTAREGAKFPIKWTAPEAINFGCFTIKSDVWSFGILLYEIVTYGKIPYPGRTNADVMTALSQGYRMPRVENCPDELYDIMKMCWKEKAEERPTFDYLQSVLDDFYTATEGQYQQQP
Chain of SRMS (human) (Q9H3Y6 whole entry, looked up): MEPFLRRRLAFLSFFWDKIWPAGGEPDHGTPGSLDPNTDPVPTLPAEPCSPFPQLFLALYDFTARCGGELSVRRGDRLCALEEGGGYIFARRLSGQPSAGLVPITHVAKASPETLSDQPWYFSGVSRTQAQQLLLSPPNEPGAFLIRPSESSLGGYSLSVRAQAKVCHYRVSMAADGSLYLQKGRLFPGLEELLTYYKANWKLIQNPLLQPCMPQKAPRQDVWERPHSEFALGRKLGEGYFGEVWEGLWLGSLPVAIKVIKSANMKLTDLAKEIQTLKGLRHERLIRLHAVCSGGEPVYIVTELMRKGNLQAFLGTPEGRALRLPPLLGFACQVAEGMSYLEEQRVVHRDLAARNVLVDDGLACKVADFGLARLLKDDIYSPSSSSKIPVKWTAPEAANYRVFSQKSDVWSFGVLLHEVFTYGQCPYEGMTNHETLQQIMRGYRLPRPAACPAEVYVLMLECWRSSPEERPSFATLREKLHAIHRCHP
Chain of FRK (human) (P42685 whole entry, looked up): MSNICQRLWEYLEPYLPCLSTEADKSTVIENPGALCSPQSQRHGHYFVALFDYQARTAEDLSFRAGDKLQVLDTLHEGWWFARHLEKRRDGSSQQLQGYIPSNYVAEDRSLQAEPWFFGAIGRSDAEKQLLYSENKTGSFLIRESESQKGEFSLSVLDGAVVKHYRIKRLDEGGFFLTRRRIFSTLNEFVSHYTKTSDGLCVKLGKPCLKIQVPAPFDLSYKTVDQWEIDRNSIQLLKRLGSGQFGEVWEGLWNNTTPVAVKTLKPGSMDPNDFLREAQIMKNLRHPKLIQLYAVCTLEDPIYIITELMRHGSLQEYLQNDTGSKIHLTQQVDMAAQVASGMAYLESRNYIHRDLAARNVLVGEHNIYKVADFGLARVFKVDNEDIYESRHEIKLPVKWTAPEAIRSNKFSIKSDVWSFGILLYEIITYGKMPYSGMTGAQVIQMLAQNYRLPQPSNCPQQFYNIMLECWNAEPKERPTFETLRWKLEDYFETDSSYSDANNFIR
Chain of RIPK2 (human) (O43353 whole entry, looked up): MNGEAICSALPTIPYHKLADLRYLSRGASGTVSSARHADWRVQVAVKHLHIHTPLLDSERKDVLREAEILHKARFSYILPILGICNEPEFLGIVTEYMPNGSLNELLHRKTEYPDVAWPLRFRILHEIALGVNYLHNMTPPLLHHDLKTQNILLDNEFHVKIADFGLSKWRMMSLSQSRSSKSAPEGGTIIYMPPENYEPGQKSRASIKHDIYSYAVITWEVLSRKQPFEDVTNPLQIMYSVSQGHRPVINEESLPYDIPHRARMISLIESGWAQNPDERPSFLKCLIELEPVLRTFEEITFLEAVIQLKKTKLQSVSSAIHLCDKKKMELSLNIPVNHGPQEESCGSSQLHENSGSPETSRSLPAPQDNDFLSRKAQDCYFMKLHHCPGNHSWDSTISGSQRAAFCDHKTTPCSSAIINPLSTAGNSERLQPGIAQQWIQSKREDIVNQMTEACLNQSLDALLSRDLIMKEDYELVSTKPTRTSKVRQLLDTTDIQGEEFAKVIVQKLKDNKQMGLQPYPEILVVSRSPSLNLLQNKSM
Chain of ITK (human) (Q08881 whole entry, looked up): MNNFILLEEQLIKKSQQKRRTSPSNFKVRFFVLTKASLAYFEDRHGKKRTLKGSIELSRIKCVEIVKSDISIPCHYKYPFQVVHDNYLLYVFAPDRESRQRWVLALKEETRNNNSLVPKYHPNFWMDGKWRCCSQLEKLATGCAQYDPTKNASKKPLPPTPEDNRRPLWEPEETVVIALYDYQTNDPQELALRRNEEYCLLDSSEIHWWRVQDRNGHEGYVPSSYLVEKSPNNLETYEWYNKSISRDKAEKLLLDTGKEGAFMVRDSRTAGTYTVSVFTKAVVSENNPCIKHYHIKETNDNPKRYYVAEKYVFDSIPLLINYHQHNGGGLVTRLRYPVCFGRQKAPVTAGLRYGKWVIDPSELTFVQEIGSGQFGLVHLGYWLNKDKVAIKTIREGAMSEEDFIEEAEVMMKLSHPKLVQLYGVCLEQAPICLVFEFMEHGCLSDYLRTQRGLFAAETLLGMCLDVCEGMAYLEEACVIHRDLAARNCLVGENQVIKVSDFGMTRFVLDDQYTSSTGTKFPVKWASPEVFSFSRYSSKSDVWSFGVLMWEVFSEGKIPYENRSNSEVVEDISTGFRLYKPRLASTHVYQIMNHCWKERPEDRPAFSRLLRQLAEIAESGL
Chain of CSF1R (human) (P07333 whole entry, looked up): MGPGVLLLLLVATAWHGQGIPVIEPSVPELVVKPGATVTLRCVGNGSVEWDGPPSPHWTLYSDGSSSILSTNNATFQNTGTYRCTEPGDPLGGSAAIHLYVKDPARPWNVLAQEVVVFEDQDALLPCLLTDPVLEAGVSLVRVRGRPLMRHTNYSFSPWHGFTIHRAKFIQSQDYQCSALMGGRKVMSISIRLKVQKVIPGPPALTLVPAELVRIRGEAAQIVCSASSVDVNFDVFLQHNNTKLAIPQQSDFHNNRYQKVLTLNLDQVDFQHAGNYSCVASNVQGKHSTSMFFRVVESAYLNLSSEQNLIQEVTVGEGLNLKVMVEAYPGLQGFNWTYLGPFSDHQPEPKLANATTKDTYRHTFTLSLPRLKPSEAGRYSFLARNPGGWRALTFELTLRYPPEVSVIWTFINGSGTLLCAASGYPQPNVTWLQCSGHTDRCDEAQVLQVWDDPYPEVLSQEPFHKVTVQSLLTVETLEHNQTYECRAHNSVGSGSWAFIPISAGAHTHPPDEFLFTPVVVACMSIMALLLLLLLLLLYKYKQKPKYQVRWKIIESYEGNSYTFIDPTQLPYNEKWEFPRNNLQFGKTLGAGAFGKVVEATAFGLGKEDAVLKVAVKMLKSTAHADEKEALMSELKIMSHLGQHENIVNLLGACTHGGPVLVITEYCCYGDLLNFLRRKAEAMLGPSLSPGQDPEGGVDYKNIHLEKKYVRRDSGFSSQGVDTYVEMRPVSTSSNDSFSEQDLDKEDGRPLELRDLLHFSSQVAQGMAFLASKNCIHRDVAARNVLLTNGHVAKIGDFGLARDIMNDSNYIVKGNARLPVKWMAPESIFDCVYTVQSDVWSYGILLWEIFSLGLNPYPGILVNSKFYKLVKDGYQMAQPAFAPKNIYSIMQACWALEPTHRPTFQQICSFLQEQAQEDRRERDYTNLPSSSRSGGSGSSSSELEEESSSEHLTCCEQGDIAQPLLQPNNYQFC
Chain of CAMK4 (human) (Q16566 whole entry, looked up): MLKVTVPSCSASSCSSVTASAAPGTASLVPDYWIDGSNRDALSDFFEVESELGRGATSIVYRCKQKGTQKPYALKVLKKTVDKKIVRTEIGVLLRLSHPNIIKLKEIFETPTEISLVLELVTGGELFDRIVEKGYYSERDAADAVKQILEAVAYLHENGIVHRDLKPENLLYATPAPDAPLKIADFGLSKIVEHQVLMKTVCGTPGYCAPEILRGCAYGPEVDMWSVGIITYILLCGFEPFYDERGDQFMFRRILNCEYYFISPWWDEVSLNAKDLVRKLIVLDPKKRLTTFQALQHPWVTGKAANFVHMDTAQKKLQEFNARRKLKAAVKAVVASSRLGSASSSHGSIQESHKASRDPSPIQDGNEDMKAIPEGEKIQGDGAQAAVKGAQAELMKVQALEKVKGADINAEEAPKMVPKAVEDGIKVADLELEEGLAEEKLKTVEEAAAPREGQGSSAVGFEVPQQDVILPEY

SMILES: COc1cc2ncnc(Nc3ccc(OCc4ccccc4)cc3)c2cc1OC
- residual activity (ABL2 (human)): 101%
- residual activity (AURKC (human)): 84.8%
- residual activity (BMX (human)): 89.7%
- residual activity (CAMK2B (human)): 105%
- residual activity (CAMK4 (human)): 101%
- residual activity (CDK2 CCNA2 (human)): 100%
- residual activity (CDK9 CCNT1 (human)): 94.5%
- residual activity (CSF1R (human)): 97.8%
- residual activity (CSNK2A2 (human)): 95.3%
- residual activity (DAPK1 (human)): 98.5%
- residual activity (DDR2 (human)): 100%
- residual activity (EPHA7 (human)): 97%
- residual activity (EPHB3 (human)): 90%
- residual activity (FGFR2 (human)): 103%
- residual activity (FRK (human)): 104%
- residual activity (HIPK2 (human)): 111%
- residual activity (INSRR (human)): 99.9%
- residual activity (ITK (human)): 96.2%
- residual activity (LYN (human)): 91.2% and 92.8%
- residual activity (MAP4K2 (human)): 114%
- residual activity (MATK (human)): 97.5%
- residual activity [1]: 101%
- residual activity (MKNK2 (human)): 88.1%
- residual activity (MST4 (human)): 91.6%
- residual activity (NEK11 (human)): 90.4%
- residual activity (NTRK2 (human)): 92.5%
- residual activity (PAK1 (human)): 93.2%
- residual activity (PASK (human)): 98.6%
- residual activity (PBK (human)): 109%
- residual activity (PHKG2 (human)): 97.4%
- residual activity (PLK1 (human)): 101%
- residual activity (PRKACA (human)): 101%
- residual activity (PRKCA (human)): 93.9%
- residual activity (PRKCB2 (human)): 106%
- residual activity (PRKD2 (human)): 101%
- residual activity (PRKG1 (human)): 90.3% and 99.3%
- residual activity (RIPK2 (human)): 61.6%
- residual activity (RPS6KA1 KD1 KD2 (human)): 90.2%
- residual activity (SGK3 (human)): 105%
- residual activity (SRMS (human)): 104%
- residual activity (SRPK2 (human)): 92.3%
- residual activity (YES1 (human)): 36%

SMILES: COc1ccc2c(c1)c(C1=C(c3c[nH]c4ccccc34)C(=O)NC1=O)cn2CCCN(C)C
- residual activity (ABL2 (human)): 77.7%
- residual activity (AURKC (human)): 90.4%
- residual activity (BMX (human)): 96.3%
- residual activity (CAMK2B (human)): 89.9%
- residual activity (CAMK4 (human)): 90.3%
- residual activity (CDK2 CCNA2 (human)): 112%
- residual activity (CDK9 CCNT1 (human)): 69.7%
- residual activity (CSF1R (human)): 92.8%
- residual activity (CSNK2A2 (human)): 99.3%
- residual activity (DAPK1 (human)): 105%
- residual activity (DDR2 (human)): 101%
- residual activity (EPHA7 (human)): 88.8%
- residual activity (EPHB3 (human)): 97%
- residual activity (FGFR2 (human)): 90.7%
- residual activity (FRK (human)): 91.3%
- residual activity (HIPK2 (human)): 96.3%
- residual activity (INSRR (human)): 101%
- residual activity (ITK (human)): 70.4%
- residual activity (LYN (human)): 112% and 94.2%
- residual activity (MAP4K2 (human)): 56.3%
- residual activity (MATK (human)): 99.3%
- residual activity [1]: 92.8%
- residual activity (MKNK2 (human)): 81.1%
- residual activity (MST4 (human)): 40.4%
- residual activity (NEK11 (human)): 91.6%
- residual activity (NTRK2 (human)): 88.1%
- residual activity (PAK1 (human)): 87.4%
- residual activity (PASK (human)): 83.8%
- residual activity (PBK (human)): 96.8%
- residual activity (PHKG2 (human)): 98.3%
- residual activity (PLK1 (human)): 104%
- residual activity (PRKACA (human)): 77.9%
- residual activity (PRKCA (human)): 3.14%
- residual activity (PRKCB2 (human)): 14.2%
- residual activity (PRKD2 (human)): 92.3%
- residual activity (PRKG1 (human)): 79.4% and 99.5%
- residual activity (RIPK2 (human)): 70.2%
- residual activity (RPS6KA1 KD1 KD2 (human)): 16%
- residual activity (SGK3 (human)): 101%
- residual activity (SRMS (human)): 95.9%
- residual activity (SRPK2 (human)): 88%
- residual activity (YES1 (human)): 90.4%
